# Measured values: EP2229935A1, “Peptide derivatives or pharmaceutically acceptable salts thereof, method for producing the same, use of said derivatives and pharmaceutical composition” (Nebolsin, Vladimir Evgenievich, priority 1997, dated 1999)
# Marks after values point to notes of the source that are not given here.
# Columns and labels:
# [1] = tested on: Isolate HIV-1/IV17 of type 1 human immunodeficiency virus; assay: Viability of MT-4 cells acutely infected with HIV-1; type: cell-based; settings: day 7
# Experimental: Study was carried out on the culture of human lymphoblastoid cells MT-4. Isolate HIV-1/IV17 of type 1 human immunodeficiency virus from the collection of the D.I.Ivanovsky Institute for Virology was used in experiment. The test compounds of general formula (I): III, VI, VII were introduced into cellular culture at concentrations 1.0; 0.1 and 0.01 µg/ml. The reference drug Azidothymidine was introduced at a dose 0.05 µM/ml. The compounds were introduced into the culture of MT-4 cells at a dose 1000 TCD50 one hour prior to virus introduction. Viability of MT-4 cells was estimated by day 7 of experiment.
# Viability of cells was the main efficacy parameter of the test compounds.
# [2] = tested on: Lewis pulmonary carcinoma (LLC); assay: LLC metastasizing: compound III substance versus tabletted dosage form; type: in vivo, C57BL/6 female mice; settings: C57BL/6 mice with LLC; oral 500 µg/kg (active basis) daily day 1-10; 24 days
# Experimental: To estimate therapeutic efficacy of compound III tabletted dosage form (0.2 g tablets 6 mm in diameter comprising 17 mg substance) studies were carried out on the model of spontaneous LLC carcinoma metastasizing.
# Experiments were carried out on C57BL/6 female mice weighing 20-25 g. Experimental groups included 8 animals and the control group 11 mice. Substance and dosage form of compound III were administered orally at a dose 500 µg/kg (at a rate per an active basis) daily from day 1 till day 10 of experiment. Experiment lasted for 24 days.
# [3] = tested on: mongrel white male mice; assay: Delayed type hypersensitivity induced by sheep red blood cells; type: in vivo; settings: DTH to sheep red blood cells; for Difference in paw masses: 24 hours; for Percent to the control / Reaction index, percent: oral
# Experimental: Studies were cartried out on mongrel white male mice with initial body mass 22-24 g. Each group included 10 animals. Mice were sensitized with intravenous injection of the suspension of 2 x 10^5 sheep red blood, cells in 0.05 ml normal saline. By day 5, the suspension of 10^8 sheep red blood cells in 0.05 ml normal saline was injected into the hind paw pad. As a control, the solvent, i.e. normal saline in equivalent amount, was injected. Reaction intensity was assessed in 24 hours by difference in the paw masses of animals. Reaction index = (Mt -Mc)/(Mc)x 100 [formula]
# The test compound III was orally administered for three days at doses 50 and 500 µg/kg according to the dosage regimen - days 3, 4 and 5, day 5 - administration of the anaphylaxis-provoking dose.
# [4] = tested on: white mongrel male rats; assay: Carrageenan paw edema, cutaneous gel application (series 2); type: in vivo
# Experimental: Experiment was carried out on white mongrel male rats weighing 280-300 g. Carrageenan-induced edema was caused according to the method of Winter et al. [[inter et al. In: De Rosa M., Giroud J.P., Willoughby D.A. Studies of the mediators of the acute inflammatory reponse induced in rats in different sites by carrageenan and turpentine. […] Paw volume measurement was done using a plethysmograph (Ugo Basile) 1, 3 and 4 hours after carrageenan administration. Inhibition of inflammatory reaction expressed in percent, was calculated according to the formula: 100-[(R-L(exper.))/(L):(R-L(control))/(L)x100](%) [formula] where R - the right paw volume, L - the left paw volume.
# Series 2 of experiment. 2% carrageenan solution was injected sublaterally into paws of rats. In 1 minute 0.1 ml of gel comprising the test compounds were applied on the right paw. Gel base consisted of propylene glycol dissolved in the mixture of water and ethanol. Concentration of the compounds in the gel was 1%. Volume of paws was measured 4 hours after carrageenan administration.
# [5] = tested on: Lewis pulmonary carcinoma (LLC); assay: Lewis pulmonary carcinoma growth; type: in vivo; settings: mice with LLC, day 12
# Experimental: Experiments were carried out on male mice with initial body mass 18-20 g. Each group included 10 animals. […] Administration of compounds II, III, IX, X, XII, XIV, XV, XVI, XVII, XIX, XXII, XLVII in drinking water was commenced 24 hours following transplantation and continued till the end of experiment. Effect of the compounds on Lewis rat pulmonary carcinoma (LLC) was estimated by day 12 of experiment by change in tumor volume expressed in mm^3.
# [6] = tested on: lipid peroxidation (LP) products; assay: Antioxidant activity in vivo: acute toxic hepatic lesion with CCl4; settings: rats, CCl4 3 days; for Liver, MDA, nM/mg of tissue / Liver, diene conjugates, E232/mg of tissue / Liver, diene ketones, trienes E278/mg of tissue: intragastral
# Experimental: Antioxidant activity was studied in an in vivo experiment on the model of acute toxic hepatic lesion with carbon quadrichloride (CCl4).
# Experiment was carried out on 40 mongrel male rats with initial body mass 190-200 g fed a standard vivarium ration. Each group included 10 animals. Hepatic lesion (experimental hepatitis) was induced in animals by intragastral administration of 0.25 ml per 100 g of body mass CCl4 in the form of 50% solution in vaseline oil for 3 days [Vengerovsky A.I., Chuchalin V.S., Pauls O.V., Saratikov A.S. Effect of hepatoprotectors on lipid metabolism in hepatitis induced by Ccl4. Bulletin of Experimental Biology (1987), No 4, pp. 430-432]. […] Animals of the control group were administered CCl4 as described above (group 2). Intact animals were orally given normal saline in an equivalent amount (group 1).
# The content of primary lipid peroxidation (LP) products - diene conjugates, diene ketones and trienes - were determined using the published method [Volchegorsky I.A., Nalimov A.G., Yarovinsky B.G., Lifshits R.I. Comparison of different approaches to determining lipid peroxidation products in heptane-isopropanolic blood extracts. Voprosy Meditsinskoy Chimii (Problems of Medical Chemistry) (1989),No 1, pp. 127-131]. Content calculation of LP products was done correlating the values of respective extinctions with 1 ml of test sample.
# The amount of LP final product - malonic dialdehyde (MDA) - was determined by the test with thiobarbituric acid (TBA) [Korobeinikova E.N. Modification of lipid peroxidation products in the reaction with thiobarbituric acid. Laboratornoye delo (Laboratory Matter) (1989), No 7, pp. 8-10]. Concentration of TBA-active product was calculated using regression equation. MDA content in the liver of experimental animals was assessed using the modified method [Stalnaya I.D., Garishvili T.G. The method of determining malonic dialdehyde using thiobarbituric acid. In: Modem methods in biochemistry. Moscow, Meditsina publishers. (1977), pp. 66-69], performing preliminary extraction of lipids according to Folch [Cates M. Technology of Lipidology. Moscow, Mir publishers (1975), pp. 74-76].
# [7] = tested on: superoxide anion-radical; assay: Superoxide anion-radical formation in the xantine-xantine oxidase system (chemiluminescence); type: biochemical
smiles,measurement,setting,value
"O=C(O)CCCC(=O)NCCc1c[nH]cn1 [compound III, N-GLUTARYLHISTAMINE]",protective effect against cytodestructive HIV-1 effect (viability of MT-4 cells),[1]; 1.0 and 0.1 µg/ml,comparable with the effect of the reference drug Azidothymidine
same,viability at 0.01 µg/mL,"[1]; Human immunodeficiency virus 1, MT4, 168 h, 0.01 µg/ml, series 1 (infected cells 10-17, non-infected 90), read-out: Viability of cells in percent",18%
same,viability at 0.1 µg/mL,"[1]; Human immunodeficiency virus 1, MT4, 168 h, 0.1 µg/ml, series 1 (infected cells 10-17, non-infected 90), read-out: Viability of cells in percent",39%
same,viability at 1 µg/mL,"[1]; Human immunodeficiency virus 1, MT4, 168 h, 1.0 µg/ml, series 1 (infected cells 10-17, non-infected 90), read-out: Viability of cells in percent",68%
same,Mean number of metastases,[2],22.5 ± 0.9
same,Metastasizing inhibition percent,[2],46.4%
same,Metastasizing rate in percent,[2],100%
same,Tumor mass,[2],12.9 ± 0.9 g
same,Difference in paw masses,"[3]; oral days 3, 4, 5, 50 µg/kg",16.7 ± 1.9 g
same,Difference in paw masses,"[3]; oral days 3, 4, 5, 500 µg/kg",17.2 ± 1.3 g
same,Percent to the control,[3]; 50 µg/kg,75.5%
same,"Reaction index, percent",[3]; 50 µg/kg,10.3 ± 1.1%
same,Percent to the control,[3]; 500 µg/kg,79.3%
same,"Reaction index, percent",[3]; 500 µg/kg,10.8 ± 0.8%
same,Volume of paws (conditional units) Right,"[4]; 0.1 ml of 1% gel on right paw, 4 hours after carrageenan",2.13 ± 0.64 conditional units
same,Volume of paws (conditional units) left,"[4]; 1% gel group, left paw, 4 hours",1.83 ± 0.21 conditional units
same,Inflammation inhibition (%),"[4]; 1% gel, 4 hours",60%
same,Volume increment,"[4]; 1% gel, 4 hours",0.30 ±0.06*^l
same,Growth inhibition percent,[5]; compound in drinking water,53%
same,Tumor volume (mm^3),[5]; compound in drinking water from 24 hours after transplantation,1249 ± 168** mm^3
same,"Blood serum, MDA, nM/ml","[6]; intragastral 3 days with CCl4, 50 µg/kg",4.05 ± 0.198*^2 nM/ml
same,"Blood serum, MDA, nM/ml","[6]; intragastral 3 days with CCl4, 500 µg/kg",3.89 ± 0.11**^2 nM/ml
same,"Liver, MDA, nM/mg of tissue",[6]; 50 µg/kg,4.98 ± 0.13**^2 nM/mg of tissue
same,"Liver, diene conjugates, E232/mg of tissue",[6]; 50 µg/kg,16.25 ± 0.61 E232/mg of tissue
same,"Liver, diene ketones, trienes E278/mg of tissue",[6]; 50 µg/kg,8.42 ± 0.25**^2 E278/mg of tissue
same,"Liver, MDA, nM/mg of tissue",[6]; 500 µg/kg,5.01 ± 0.17**2 nM/mg of tissue
same,"Liver, diene conjugates, E232/mg of tissue",[6]; 500 µg/kg,15.89 ± 0.38 E232/mg of tissue
same,"Liver, diene ketones, trienes E278/mg of tissue",[6]; 500 µg/kg,8.24 ± 0.19*^2 E278/mg of tissue
same,Chemiluminiscence intensity (mV) + σn-1,"[7]; 0.1 mM, control of the series as in the table",5670 ± 379 mV
same,relative effect: 1+/I-,[7]; 1 mM,0.72
same,Chemiluminiscence intensity (mV) + σn-1,"[7]; 1 mM, control of the series 5616 ± 173, 5391 ± 195, 7290 ± 128 or 6776 ± 150",4027 ± 683 mV
